# According to US10513529B2, “1,2,4-triazolo-[3,4-b]-1,3,4-thiadiazole derivatives” (GALENICA S.A., priority 2016, dated 2019):
# pIC50: −log10 of the molar value.
# Experiments:
# Type in all cases: cell-based
# [1] = tested on: SKOV-3 human ovarian cancer cell line; assay: MTT cytostatic-cytotoxic activity, SKOV-3; settings: for GI50 / pIC50: Homo sapiens, SK-OV-3, SKOV-3, 48 h treatment; for pIC50: kills 50% of the cells; for TGI: SKOV-3, 48 h treatment
# Procedure: (§1) SKOV-3 (SKOV-3) (ATCC HTB 77) and OVCAR-3 (ATCC® HTB-161™)
# (§2) Human ovarian adenocarcinoma cells, which are grown easily in monolayer culture with epithelial-like morphology. SKOV-3 are resistant to tumor necrosis factor (TNF) and to other cytotoxic drugs such as cisplatin, and adriamycin, while OVCAR-3 are resistant to adriamycin, cisplatin and melphalan. These cell lines express androgens, estrogens and progesterone receptors. When SKOV-3 or OVCAR-3 cells are subcutaneously implanted in nude mice, SCID mice, a moderately differentiated tumor develops, and the resulting model resembles primary ovarian adenocarcinoma in humans.
# (§3) All cancer cell lines are stored in a liquid nitrogen tank in 2.5 ml cryovials (Corning-Costar, Cambridge, Mass.). DMSO (dimethylsulfoxide) act as a cryoprotectant and is added to prevent the formation of ice crystals which may lyse the cells. The Cells were grown as monolayer cultures in T-75 flasks (Corning-Costar, Cambridge, Mass.) and maintained at 37° C. in 5% CO2 incubator & 100% relative humidity. The cultures medium used are McCoy's 5a Medium, supplemented with 10% fetal bovine serum (FBS, Gibco) and 1% antibiotics (100 IU/ml penicillin/100 µg/ml streptomycin), sterilized by filtration (Corning-Costar filter, diameter 0.2 μm, RPMI-1640 and 50% RPMI-1640 (Catalog No 30-2001) plus 50% Mammary Epithelial Growth Medium (MEGM), supplemented with 10% fetal bovine serum (FBS, Gibco) and 1% antibiotics (100 IU/ml penicillin/100 μg/ml streptomycin). The passage is performed every 3-4 to days as follows: Cells are washed with sterile PBS (Phosphate buffered saline): 8 g/l NaCl, 0,2 g/l KCl, 1,15 g/l Na2HPO4καl 0,2 g/l KH2PO4. pH:7,4), add 2-3 ml 0.05% trypsin (Gibco 1:250) and 0.02% EDTA to cover the monolayer and incubate the flask at 3TC for 5-10 minutes. Trypsin-EDTA, is used mainly to detach the cells from the flask and prepare a single cell suspension. Finally, the number of cells can be determined by direct counting using a Neubauer chamber and cell viability is determined by staining the cells with trypan blue.
# (§4) In the experimental study the in vitro effect of the compound type (I) was evaluated against ovarian cancer cell lines UWB1.289, UWB1.289+BRCA1 Kai SKOV-3.The cells were plated in 96-well plate (MTP) at a density of 1×10^4cells/m1 per well and maintained for 72 h at 3TC in a 5% CO2 incubator and grown as monolayers. The selection of the initial number of cells was made according to the rate of proliferation of the cell line, in order the cells throughout the experiment are in an exponential (log) growth phase. After 24 hours, cells were treated with 1-100 μmol/l of the tested compounds for 48 h. Experiments were carried out using triplicate wells. The viability of cultured cells was estimated by an (3-(4,5-imethylthiazol-2-yl)-2,5-diphenyltetrazolium bromide (MTT) metabolic assay as described previously (Finlay G J, Wilson W R and Baguley B C: Comparison of in vitro activity of cytotoxic drugs towards human carcinoma and leukaemia cell lines. Eur J Cancer Clin Oncol 22: 655-662, 1986; Alley M C, Scudiero D A, Monks A, Hursey M L, Czerwinski M J, Fine D L, et al. Feasibility of drug screening with panels of human tumor cell lines using a microculture tetrazolium assay. Cancer Res 1988; 48:589-601). MTT (Sigma, St Louis, Mo., USA) was dissolved in PBS in a concentration of 5 mg/ml, filter sterilized, and stored at 4° C. MTT (50 μl of stock solution) was added to each culture and incubated for 3 h at 3TC to allow metabolization. Formazan crystals were solubilized by DMSO (100 μl). Absorbance of the converted dye was measured at a wavelength of 540nm on ELISA reader (BioTek, Winooski, Vt., USA).
# (§5) GI50: The mean concentration that causes 50% inhibition of cell growth (Growth Inhibition 50%). The calculation of the value is based on the formula: (Tt72x)−(Ct24)/(Ct72)-(Ct24)×100=50
# (§6) TGI: The mean concentration that causes 100% inhibition of cell growth (Total Growth Inhibition). […]
# [2] = tested on: UWB1.289 + BRCA1 human ovarian cancer cell line; assay: MTT cytostatic-cytotoxic activity, UWB1.289+BRCA1; settings: for GI50 / pIC50: Homo sapiens, UWB1289, UWB1.289+BRCA1, 48 h treatment; for pIC50: kills 50% of the cells; for TGI: UWB1.289+BRCA1, 48 h treatment
# Procedure: Human ovarian adenocarcinoma cells, derived from UBWB1,289, in which the presence of the BRCA1 gene has been restored. […] They are not susceptible to ionizing radiation and radioimmune chemical agents (e.g., alkylating agents). Also, UWB1.289 cells have mutated the p53 tumor suppressor gene, and are positive for the expression of cytokeratin 7 (CK-7), calretinin and Wilms' tumor protein (WT).
# as §3, §4, §5
# (§7) TGI: The mean concentration that causes 100% inhibition of cell growth (Total Growth Inhibition). The value is calculated according to the formula: (Tt72x)−(Ct24)/(Ct72)−(Ct24)×100=0
# (§8) IC50: The mean concentration that kills 50% of the cells (Inhibition Concentration 50%). The value is calculated according to the formula: (Tt72x)−(Ct24)/(Ct24)×100=[…]
# [3] = tested on: OVCAR-3 human ovarian cancer cell line; assay: MTT cytostatic-cytotoxic activity, OVCAR-3; settings: OVCAR-3, 48 h treatment; for GI50 / pIC50: Homo sapiens; for pIC50: kills 50% of the cells
# Procedure: as §1, §2, §3, §4, §5, §6
# [4] = tested on: PC-3 human hormone-resistant prostate cancer cell line; assay: MTT cytostatic-cytotoxic activity, PC-3; settings: PC-3, 48 h treatment; for GI50 / pIC50: Homo sapiens; for pIC50: kills 50% of the cells
# [5] = tested on: MCF-7 human breast cancer cell line; assay: MTT cytostatic-cytotoxic activity, MCF-7; settings: for GI50 / pIC50: Homo sapiens; for GI50: MCF7, 48 h; for GI50 / TGI: MCF-7, 48 h treatment; for pIC50: MCF7, MCF-7, 48 h treatment, kills 50% of the cells
# [6] = tested on: A-549 human lung carcinoma cell line; assay: MTT cytostatic-cytotoxic activity, A-549; settings: for TGI: A-549, 48 h treatment; for GI50 / pIC50: Homo sapiens, A549, A-549, 48 h treatment; for pIC50: kills 50% of the cells
# [7] = tested on: T-47D human breast cancer cell line; assay: MTT cytostatic-cytotoxic activity, T-47D; settings: 48 h treatment; for GI50 / pIC50: Homo sapiens, T47D; for GI50: 48 h; for pIC50: kills 50% of the cells
# [8] = tested on: UWB1.289 human ovarian cancer cell line (mutant BRCA1); assay: MTT cytostatic-cytotoxic activity, UWB1.289; settings: for GI50 / pIC50: Homo sapiens; for GI50: UWB1289, 48 h; for GI50 / TGI: UWB1.289, 48 h treatment; for pIC50: UWB1289, UWB1.289, 48 h treatment, kills 50% of the cells
# Procedure: Also, UWB1.289 cells have mutated the p53 tumor suppressor gene and positive Wilms' tumor protein (WT) expression, have no functional BRCA1 gene and are positive for the expression of cytokeratin 7 (CK-7), calretinin and Wilms' tumor protein (WT). Finally they are sensitive to ionizing radiation.
# as §3, §4, §5, §7, §8
SMILES,GI50 [1] [µM],pIC50 [1],TGI [1] [µM],GI50 [2] [µM],pIC50 [2],TGI [2] [µM],GI50 [3] [µM],pIC50 [3],TGI [3] [µM],GI50 [4] [µM],pIC50 [4],TGI [4] [µM],GI50 [5] [µM],pIC50 [5],TGI [5] [µM],TGI [6] [µM],GI50 [6] [µM],pIC50 [6],TGI [7] [µM],GI50 [7] [µM],further results
"COc1cc(Cc2nnc3sc(/C=C/c4ccc(F)cc4)nn23)c(S(=O)(=O)N(C)C)cc1OC [TS25, 3-[2-(N,N-dimethylsulfamoyl)-4,5-dimethoxybenzyl]-6-(E)-4-fluorostyryl-1,2,4-triazolo[3,4-b]-1,3,4-thiazole]",18,4.10,52,5,4.44,12,24,4.03,68,8,4.16,24,16,4.07,51,56,11,4.06,34,12,pIC50 [7]: 4.12; GI50 [8]: 2 µM; pIC50 [8]: 4.22; TGI [8]: 4 µM
"COc1cc(Cc2nnc3sc(/C=C/c4ccc(Cl)cc4)nn23)c(S(=O)(=O)N(C)C)cc1OC [TS26, 3-[2-(N,N-dimethylsulfamoyl)-4,5-dimethoxybenzyl]-6-(E)-4-chlorostyryl-1,2,4-triazolo[3,4-b]-1,3,4-thiazole]",38,< 4.00,72,11,4.27,37,41,< 4.00,87,19,4.07,47,25,< 4.00,67,90,20,< 4.00,>100,78,pIC50 [7]: < 4.00; GI50 [8]: 8 µM; pIC50 [8]: 4.14; TGI [8]: 21 µM
"COc1ccc(Cc2nn3c(Cc4cc(OC)c(OC)cc4S(=O)(=O)N(C)C)nnc3s2)cc1 [TS50, 3-[2-(N,N-dimethylsulfamoyl)-4,5-dimethoxybenzyl]-6-(4-methoxybenzyl)-1,2,4-triazolo[3,4-b]-1,3,4-thiazole]",6,< 4.00,>100,16,< 4.00,>100,5,< 4.00,86,44,< 4.00,>100,40,< 4.00,>100,>100,35,< 4.00,>100,28,pIC50 [7]: < 4.00; GI50 [8]: 30 µM; pIC50 [8]: < 4.00; TGI [8]: >100 µM
"COc1cc(Cc2nnc3sc(-c4ccccc4N)nn23)c(S(=O)(=O)N(C)C)cc1OC [TS57, 3-[2-(N,N-dimethylosulfamoyl)-4,5-dimethoxybenzyl]-6-(2-aminophenyl)-1,2,4-triazolo[3,4-b]-1,3,4-thiazole]",> 100,< 4.00,>100,85,< 4.00,>100,95,< 4.00,>100,> 100,< 4.00,>100,> 100,< 4.00,>100,>100,> 100,< 4.00,>100,> 100,pIC50 [7]: < 4.00; GI50 [8]: > 100 µM; pIC50 [8]: < 4.00; TGI [8]: >100 µM
"COc1cc(Cc2nnc3sc(Cc4ccccc4)nn23)c(S(=O)(=O)N(C)C)cc1OC [TS62, 3-[2-(N,N-dimethylsulfamoyl)-4,5-dimethoxybenzyl]-6-benzyl-1,2,4-triazolo[3,4-b]-1,3,4-thiazole]",12,< 4.00,56,8,< 4.00,64,8,< 4.00,68,27,< 4.00,>100,18,< 4.00,>100,71,15,< 4.00,>100,24,pIC50 [7]: < 4.00; GI50 [8]: 13 µM; pIC50 [8]: < 4.00; TGI [8]: >100 µM
